Measured values from patent US20240327393A1 (SIRONAX LTD., priority 2021, published 2024).

System: HT-1080 (ATCC, CCL-121) cells
Assay: HT-1080 cell viability assay with ferroptosis inducer RSL3 (Cell Titer-Glo)
Type: cell-based
Conditions: Homo sapiens; HT-1080 cells treated with RSL3; 3-fold, 10-point dilution, 1.1 μM highest concentration; Table 3; read-out: EC50 (nM), ferroptosis inhibitory activity
Summary of the method: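 HT-1080 cells (6000 per well) were cultured overnight at 37 °C, then co-treated with RSL3 and compound in a 3-fold, 10-point series topping at 1.1 μM. Viability was read by CellTiter-Glo luminescence and normalized to untreated controls. EC50 came from a sigmoidal non-linear regression fit.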

Compound	EC50
CCC1CN(c2ccc(Nc3ccc4c(c3)ncn4C)c(C)n2)CCO1 (stereo not drawn) [Compound 603, N-[6-(2-ethylmorpholin-4-yl)-2-methylpyridin-3-yl]-1-methyl-1,3-benzodiazol-5-amine]	0.1 to 100 nM
Cc1cc(N2CCC(C)C2)ccc1Nc1ccc2c(c1)OCC(=O)N2 (stereo not drawn) [Compound 604, 7-((2-methyl-4-(3-methylpyrrolidin-1-yl)phenyl)amino)-2H-benzo[b][1,4]oxazin-3(4H)-one]	0.1 to 100 nM
Cc1nc(N2C[C@@H](C)O[C@@H](C)C2)ccc1Nc1ccc2c(c1)ncn2C [Compound 605, N-(6-((2S,6R)-2,6-dimethylmorpholino)-2-methylpyridin-3-yl)-1-methyl-1H-benzo[d] imidazol-5-amine]	0.1 to 100 nM
Cc1cc(N2CCC(C(F)(F)F)CC2)ccc1Nc1ccn2ccnc2c1 [Compound 606, N-(2-methyl-4-(4-(trifluoromethyl)piperidin-1-yl)phenyl) imidazo[1,2-a]pyridin-7-amine]	100 to 1000 nM
Cc1cc(N2CCC(C(F)(F)F)CC2)ccc1Nc1ccc2c(c1)OC(CN)C(=O)N2C (stereo not drawn) [Compound 607, 2-(aminomethyl)-4-methyl-7-((2-methyl-4-(4-(trifluoromethyl)piperidin-1-yl)phenyl)amino)-2H-benzo[b][1,4]oxazin-3(4H)-one]	0.1 to 100 nM
Cc1cc(N2CCC(C(F)(F)F)CC2)ccc1Nc1ccc2c(c1)OCC(=O)NC2 [Compound 608, 8-((2-methyl-4-(4-(trifluoromethyl)piperidin-1-yl)phenyl)amino)-4,5-dihydrobenzo[f][1,4]oxazepin-3(2H)-one]	0.1 to 100 nM
CNCc1cnc2cc(Nc3ccc(N4CCC(C(F)(F)F)CC4)cc3C)ccn12 [Compound 609, N-(2-methyl-4-(4-(trifluoromethyl)piperidin-1-yl)phenyl)-3-((methylamino)methyl)imidazo[1,2-a]pyridin-7-amine]	0.1 to 100 nM
Cc1cc(N2CC(F)C2)ccc1Nc1ccc2c(c1)OCCC(=O)N2 [Compound 610, 8-((4-(3-fluoroazetidin-1-yl)-2-methylphenyl)amino)-2,3-dihydrobenzo[b][1,4]oxazepin-4(5H)-one]	0.1 to 100 nM
Cc1cc(N2CC(F)C2)ccc1Nc1ccc2c(c1)OC[C@H](N)C(=O)N2 [Compound 611, (S)-3-amino-8-((4-(3-fluoroazetidin-1-yl)-2-methylphenyl)amino)-2,3-dihydrobenzo[b][1,4]oxazepin-4(5H)-one]	0.1 to 100 nM
Cc1cc(N2CCC(C(F)(F)F)CC2)ccc1Nc1ccn2nccc2c1 [Compound 612, N-(2-methyl-4-(4-(trifluoromethyl)piperidin-1-yl)phenyl) pyrazolo[1,5-a]pyridin-5-amine]	0.1 to 100 nM
Cc1cc(N2CCC(C(F)(F)F)C2)ccc1Nc1ccc2c(c1)OCC(N)C(=O)N2 (stereo not drawn) [Compound 613, 3-amino-8-((2-methyl-4-(3-(trifluoromethyl)pyrrolidin-1-yl)phenyl)amino)-2,3-dihydrobenzo[b][1,4]oxazepin-4(5H)-one]	0.1 to 100 nM
Cc1cc(N2CC(OC(F)(F)F)C2)ccc1Nc1ccc2c(c1)OCCC(=O)N2 [Compound 614, 8-((2-methyl-4-(3-(trifluoromethoxy)azetidin-1-yl)phenyl)amino)-2,3-dihydrobenzo[b][1,4]oxazepin-4(5H)-one]	0.1 to 100 nM
Cc1cc(N2CCC(C(F)(F)F)CC2)cc2c1[nH]c1cc3cnn(C(N)=O)c3cc12 [Compound 615, 6-methyl-8-(4-(trifluoromethyl)piperidin-1-yl)pyrazolo[4,3-b]carbazole-1(5H)-carboxamide]	1000 to 10000 nM
COC1(C(F)(F)F)CCN(c2ccc(Nc3ccc4c(c3)OCC(=O)N4)c(C)c2)C1 (stereo not drawn) [Compound 616, 7-((4-(3-methoxy-3-(trifluoromethyl)pyrrolidin-1-yl)-2-methylphenyl)amino)-2H-benzo[b][1,4]oxazin-3(4H)-one]	0.1 to 100 nM
Cc1cc(N2CCC(O)(C(F)(F)F)C2)ccc1Nc1ccc2c(c1)OCC(=O)N2 (stereo not drawn) [Compound 617, 7-((4-(3-hydroxy-3-(trifluoromethyl)pyrrolidin-1-yl)-2-methylphenyl)amino)-2H-benzo[b][1,4]oxazin-3(4H)-one]	0.1 to 100 nM
COC1CCN(c2ccc(Nc3ccc4c(c3)OCC(=O)N4)c(C)c2)C1 (stereo not drawn) [Compound 618, 7-{[4-(3-methoxypyrrolidin-1-yl)-2-methylphenyl]amino}-2,4-dihydro-1,4-benzoxazin-3-one]	0.1 to 100 nM
O=C1COc2cc(Nc3ccc(N4CCC(C(F)(F)F)CC4)cc3)cc(F)c2N1 [Compound 619, 5-fluoro-7-({4-[4-(trifluoromethyl)piperidin-1-yl]phenyl}amino)-2,4-dihydro-1,4-benzoxazin-3-one]	0.1 to 100 nM

Continued, values first:

EC50	Compound
0.1 to 100 nM	Cc1cc(N2CCC(C(F)(F)F)CC2)ccc1Nc1ccc2c(c1)SCC(=O)N2 [Compound 593, 7-((2-methyl-4-(4-(trifluoromethyl)piperidin-1-yl)phenyl)amino)-2H-benzo[b][1,4]thiazin-3(4H)-one]
0.1 to 100 nM	Cc1cc(N2CCC(C(F)(F)F)CC2)ccc1Nc1ccc2c(c1)OCCC(=O)N2C [Compound 594, 5-methyl-8-((2-methyl-4-(4-(trifluoromethyl)piperidin-1-yl)phenyl)amino)-2,3-dihydrobenzo[b][1,4]oxazepin-4(5H)-one]
0.1 to 100 nM	Cc1cc(N2CC(C)(F)C2)ccc1Nc1ccc2c(c1)OCC(=O)N2 [Compound 595, 7-((4-(3-fluoro-3-methylazetidin-1-yl)-2-methylphenyl)amino)-2H-benzo[b][1,4]oxazin-3(4H)-one]
0.1 to 100 nM	CC1CCN(c2ccc(Nc3cnc4c(c3)OCC(=O)N4)cc2)CC1 [Compound 596, 7-((4-(4-methylpiperidin-1-yl)phenyl)amino)-2H-pyrido[3,2-b][1,4]oxazin-3(4H)-one]
0.1 to 100 nM	Cc1cc(N2CCC(F)(F)C2)ccc1Nc1ccc2c(c1)OCC(=O)N2 [Compound 597, 7-((4-(3,3-difluoropyrrolidin-1-yl)-2-methylphenyl)amino)-2H-benzo[b][1,4]oxazin-3(4H)-one]
0.1 to 100 nM	Cc1cc(N2CCC(C(F)(F)F)CC2)ccc1Nc1ccc2c(c1)CC(N)C(=O)N2 (stereo not drawn) [Compound 598, 3-amino-6-((2-methyl-4-(4-(trifluoromethyl)piperidin-1-yl)phenyl)amino)-3,4-dihydroquinolin-2(1H)-one]
0.1 to 100 nM	Cc1cc(N2CCC(F)C2)ccc1Nc1ccc2c(c1)OCC(=O)N2 (stereo not drawn) [Compound 599, 7-{[4-(3-fluoropyrrolidin-1-yl)-2-methylphenyl]amino}-2,4-dihydro-1,4-benzoxazin-3-one]
0.1 to 100 nM	CC(C)(C)C(=O)NN1C(=O)COc2cc(Nc3ccc(N4CCC(C(F)(F)F)CC4)cc3)ccc21 [Compound 600, N-(3-oxo-7-((4-(4-(trifluoromethyl)piperidin-1-yl)phenyl)amino)-2,3-dihydro-4H-benzo[b][1,4]oxazin-4-yl)pivalamide]
0.1 to 100 nM	Cc1cc(N2CCC(C(F)(F)F)CC2)ccc1Nc1ccc2c(c1)OC[C@H](N)C(=O)N2 [Compound 601, (S)-8-(4-(4-(trifluoromethyl)piperidin-1-yl)-2-methylphenylamino)-3-amino-2,3-dihydrobenzo[b][1,4]oxazepin-4(5H)-one]
0.1 to 100 nM	Cc1cc(N2CCC(C(F)(F)F)CC2)ccc1Nc1ccc2c(c1)OC(CO)C(=O)N2 (stereo not drawn) [Compound 602, 2-(hydroxymethyl)-7-((2-methyl-4-(4-(trifluoromethyl)piperidin-1-yl)phenyl)amino)-2H-benzo[b][1,4]oxazin-3(4H)-one]
